Assay type in all cases: cell-based
In assay [1] the test system is splenocytes of HLA-DR4 (DRB1*0401) transgenic mice. Also on record: key: — represents no positive ELISpot response.
Assay [2] concerns splenocytes of HLA-B7 (B*0702) transgenic mice. Also on record: key to B7: average IFN-γ spots forming cells per million splenocytes: — represents no positive ELISpot response.
In assay [3] the test system is splenocytes of HLA-DR2 (DRB1*1501) transgenic mice. Further details: key to DR2: average IFN-γ spots forming cells per million splenocytes: — represents no positive ELISpot response.
In assay [4] the test system is splenocytes of HLA-A24 (A*2402) transgenic mice. Also on record: key to A24: average IFN-γ spots forming cells per million splenocytes: — represents no positive ELISpot response.
The subject of assay [5] is splenocytes of HLA-DR3 (DRB1*0301) transgenic mice. Further details: key to DR3: average IFN-γ spots forming cells per million splenocytes: — represents no positive ELISpot response.

The values below come from patent US20120294879A1, “CONSENSUS SEQUENCE FOR INFLUENZA A VIRUS” (priority 2009, published 2012).

KWVRELVLYDKEEIRRI: the “DR4: average IFN-γ spots forming cells per million splenocytes” value (from here on “DR4 … per million splenocytes”) in assay [1] is recorded as “—”. Also, the “B7: average IFN-γ spots forming cells per million splenocytes” value in assay [2] is recorded as “—”. Also, the “DR2: average IFN-γ spots forming cells per million splenocytes” value (“DR2 … per million splenocytes” below) in assay [3] is “—”. Also, in assay [4], the “A24: average IFN-γ spots forming cells per million splenocytes” value is reported as “—”. Further, in assay [5], the “DR3: average IFN-γ spots forming cells per million splenocytes” value (shortened to “DR3 … per million splenocytes”) was 614 ± 21(0.1) IFN-γ spots forming cells per million splenocytes and the “DR3: lowest concentration of peptide giving positive ELISpot response in peptide titration” value (“DR3: lowest concentration” for short) was 614 ± 21(0.1) μg/ml.
For the sequence MELPSFGVSGVNESADM, the “DR4 … per million splenocytes” value in assay [1] is 274 ± 15(0.1) IFN-γ spots forming cells per million splenocytes. Also, the “B7: average IFN-γ spots forming cells per million splenocytes” value in assay [2] was “—”. Moreover, the “DR2 … per million splenocytes” value in assay [3] is “—”. In addition, the “A24: average IFN-γ spots forming cells per million splenocytes” value in assay [4] is listed as “—”. The “DR3 … per million splenocytes” value in assay [5] is “—”.
Turning to EYDAVATTHSWVPKRNR, the “DR4 … per million splenocytes” value in assay [1] was 59 ± 2(0.1) IFN-γ spots forming cells per million splenocytes. In addition, in assay [2], the “B7: average IFN-γ spots forming cells per million splenocytes” value is on record as “—”. Moreover, the “DR2 … per million splenocytes” value in assay [3] was “—”. Besides, the “A24: average IFN-γ spots forming cells per million splenocytes” value in assay [4] is “—”. Moreover, the “DR3 … per million splenocytes” value in assay [5] is “—”.
Consider PESVLINTYQWIIRNWE, for which the “DR4 … per million splenocytes” value in assay [1] is “—”. Moreover, the “B7: average IFN-γ spots forming cells per million splenocytes” value in assay [2] is given as “—”. For the same sequence, in assay [3], the “DR2 … per million splenocytes” value is given as “—”. For the same sequence, in assay [4], the “A24: average IFN-γ spots forming cells per million splenocytes” value is given as 226 ± 5 IFN-γ spots forming cells per million splenocytes and the “A24: lowest concentration of peptide giving positive ELISpot response in peptide titration” value is given as “(0.1) μg/ml”. The “DR3 … per million splenocytes” value in assay [5] was “—”.
As for RATAILRKATRRLIQLI, the “DR4 … per million splenocytes” value in assay [1] is reported as 54 ± 2(0.1) IFN-γ spots forming cells per million splenocytes. Also, the “B7: average IFN-γ spots forming cells per million splenocytes” value in assay [2] is on record as “—”. Further, the “DR2 … per million splenocytes” value in assay [3] is on record as “—”. For the same sequence, in assay [4], the “A24: average IFN-γ spots forming cells per million splenocytes” value was “—”. Moreover, in assay [5], the “DR3 … per million splenocytes” value is “—”.
Consider RMQFSSLTVNVRGSGMR, for which, in assay [1], the “DR4 … per million splenocytes” value is recorded as “—”. The “B7: average IFN-γ spots forming cells per million splenocytes” value in assay [2] is “—”. For the same sequence, in assay [3], the “DR2 … per million splenocytes” value was 104 ± 16(0.1) IFN-γ spots forming cells per million splenocytes and the “DR2: lowest concentration of peptide giving positive ELISpot response in peptide titration” value (“DR2: lowest concentration” below) is reported as 104 ± 16(0.1) μg/ml. Also, the “A24: average IFN-γ spots forming cells per million splenocytes” value in assay [4] was “—”. Further, the “DR3 … per million splenocytes” value in assay [5] is on record as “—”.
In the case of KHGTFGPVHFRNQVKIR, the “DR4 … per million splenocytes” value in assay [1] is reported as 316 ± 20(0.1) IFN-γ spots forming cells per million splenocytes. The “B7: average IFN-γ spots forming cells per million splenocytes” value in assay [2] is “—”. Further, in assay [3], the “DR2 … per million splenocytes” value is given as “—”. In addition, the “A24: average IFN-γ spots forming cells per million splenocytes” value in assay [4] is “—”. Moreover, the “DR3 … per million splenocytes” value in assay [5] is recorded as “—”.
Turning to RQTYDWTLNRNQPAATA, the “DR4 … per million splenocytes” value in assay [1] was “—”. Further, the “B7: average IFN-γ spots forming cells per million splenocytes” value in assay [2] is recorded as “—”. For the same sequence, the “DR2 … per million splenocytes” value in assay [3] was “—”. The “A24: average IFN-γ spots forming cells per million splenocytes” value in assay [4] is on record as “—”. In assay [5], the “DR3 … per million splenocytes” value is reported as 78 ± 0(0.1) IFN-γ spots forming cells per million splenocytes and the “DR3: lowest concentration” value is 78 ± 0(0.1) μg/ml.
Regarding APIMFSNKMARLGKGYM, the “DR4 … per million splenocytes” value in assay [1] is given as “—”. The “B7: average IFN-γ spots forming cells per million splenocytes” value in assay [2] was “—”. Besides, in assay [3], the “DR2 … per million splenocytes” value is “—”. Further, in assay [4], the “A24: average IFN-γ spots forming cells per million splenocytes” value is reported as “—”. In addition, in assay [5], the “DR3 … per million splenocytes” value is recorded as 175 ± 0(0.1) IFN-γ spots forming cells per million splenocytes and the “DR3: lowest concentration” value is 175 ± 0(0.1) μg/ml.
Turning to TEKLTITYSSSMMWEIN, the “DR4 … per million splenocytes” value in assay [1] is recorded as “—”. Further, the “B7: average IFN-γ spots forming cells per million splenocytes” value in assay [2] was “—”. Further, in assay [3], the “DR2 … per million splenocytes” value is 151 ± 67(0.1) IFN-γ spots forming cells per million splenocytes and the “DR2: lowest concentration” value was 151 ± 67(0.1) μg/ml. The “A24: average IFN-γ spots forming cells per million splenocytes” value in assay [4] is “—”. For the same sequence, the “DR3 … per million splenocytes” value in assay [5] is reported as “—”.
Take LEKANKIKSEKTHIHIF: in assay [1], the “DR4 … per million splenocytes” value is given as 41 ± 10(0.1) IFN-γ spots forming cells per million splenocytes. For the same sequence, the “B7: average IFN-γ spots forming cells per million splenocytes” value in assay [2] was “—”. The “DR2 … per million splenocytes” value in assay [3] was “—”. Further, the “A24: average IFN-γ spots forming cells per million splenocytes” value in assay [4] is on record as “—”. For the same sequence, the “DR3 … per million splenocytes” value in assay [5] is listed as “—”.
In the case of PVHFRNQVKIRRRVDIN, the “DR4 … per million splenocytes” value in assay [1] is given as 311 ± 37(0.1) IFN-γ spots forming cells per million splenocytes. The “B7: average IFN-γ spots forming cells per million splenocytes” value in assay [2] was “—”. For the same sequence, the “DR2 … per million splenocytes” value in assay [3] is “—”. The “A24: average IFN-γ spots forming cells per million splenocytes” value in assay [4] is reported as “—”. Also, the “DR3 … per million splenocytes” value in assay [5] was “—”.
NPSLRMKWMMAMKYPIT: in assay [1], the “DR4 … per million splenocytes” value is 166 ± 3(0.1) IFN-γ spots forming cells per million splenocytes. In assay [2], the “B7: average IFN-γ spots forming cells per million splenocytes” value was “—”. For the same sequence, the “DR2 … per million splenocytes” value in assay [3] is recorded as “—”. The “A24: average IFN-γ spots forming cells per million splenocytes” value in assay [4] is “—”. Also, the “DR3 … per million splenocytes” value in assay [5] is recorded as “—”.
Regarding SHGTGTGYTMDTVNRTH, the “DR4 … per million splenocytes” value in assay [1] is given as 106 ± 1(0.1) IFN-γ spots forming cells per million splenocytes. Moreover, the “B7: average IFN-γ spots forming cells per million splenocytes” value in assay [2] is “—”. For the same sequence, the “DR2 … per million splenocytes” value in assay [3] is “—”. In addition, the “A24: average IFN-γ spots forming cells per million splenocytes” value in assay [4] was “—”. The “DR3 … per million splenocytes” value in assay [5] is recorded as “—”.
Regarding MWEINGPESVLINTYQW, in assay [1], the “DR4 … per million splenocytes” value is reported as “—”. The “B7: average IFN-γ spots forming cells per million splenocytes” value in assay [2] is “—”. For the same sequence, in assay [3], the “DR2 … per million splenocytes” value was “—”. Besides, in assay [4], the “A24: average IFN-γ spots forming cells per million splenocytes” value is recorded as 289 ± 16 IFN-γ spots forming cells per million splenocytes and the “A24: lowest concentration of peptide giving positive ELISpot response in peptide titration” value was “(0.1) μg/ml”. The “DR3 … per million splenocytes” value in assay [5] was “—”.
Turning to LTHIMIWHSNLNDTTYQ, the “DR4 … per million splenocytes” value in assay [1] is recorded as “—”. Moreover, the “B7: average IFN-γ spots forming cells per million splenocytes” value in assay [2] was “—”. In assay [3], the “DR2 … per million splenocytes” value was 238 ± 59(0.1) IFN-γ spots forming cells per million splenocytes and the “DR2: lowest concentration” value is on record as 238 ± 59(0.1) μg/ml. Further, the “A24: average IFN-γ spots forming cells per million splenocytes” value in assay [4] was “—”. In assay [5], the “DR3 … per million splenocytes” value is “—”.
As to LASTTAKAMEQMAGSSE, the “DR4 … per million splenocytes” value in assay [1] was 115 ± 21(1) IFN-γ spots forming cells per million splenocytes. Moreover, the “B7: average IFN-γ spots forming cells per million splenocytes” value in assay [2] is listed as “—”. The “DR2 … per million splenocytes” value in assay [3] is “—”. Further, the “A24: average IFN-γ spots forming cells per million splenocytes” value in assay [4] is on record as “—”. Further, the “DR3 … per million splenocytes” value in assay [5] is “—”.
